Laboratory results published in patent US10925867B2, “Immunotherapeutic dosing regimens comprising pomalidomide and an anti-CS1 antibody for treating cancer” (Bristol-Myers Squibb Company, priority 2015, dated 2021).
Where two headings read alike, the source gives them in different places. Marks after values point to notes of the source that are not given here.

Experiments:
[1] = Study CA204112, elotuzumab administration in <1 hour (5 ml/min); format: in vivo, human; details: infusion rate escalated to 5 ml/min by the third dose; with lenalidomide/dexamethasone
Procedure: Preliminary data are available for an ongoing study CA204112 with elotuzumab administration in <1 hour (5 ml/min) combined with lenalidomide/dexamethasone in newly diagnosed and relapsed/refractory myeloma. In this trial, the infusion rate was escalated to 5 ml/min by the third elotuzumab dose.

multiple myeloma = details: cited from earlier work
OPM2 xenograft = test: Efficacy dose titration of pomalidomide in OPM2 xenograft; format: in vivo; details: for LCK (Log cell kill) / Median Days to Target Size / TGI (Tumor growth inhibition) / Weight Change % / CR (Complete regression) / PR (Partial regression): d14, 21; for CR (Complete regression) / PR (Partial regression): mice of 8; for effect on tumor growth (in words): pomalidomide 0.5, 5 and 50 mg/kg orally
Procedure: FIG. 1. Antitumor Activity of pomalidomide treatment on OPM2 Multiple Myeloma Xenograft. Pomalidomide was administered at either 0.5 mg/kg, 5 mg/kg, or 50 mg/kg. […] Group one was left untreated (control, circles), group two treated with pomalidomide (50 mg/kg, triangles), group three treated with pomalidomide (5 mg/kg, squares), group four treated with pomalidomide (0.5 mg/kg, diamonds). All treatment sets were dosed daily for 5 days orally starting on d14 and then again for 5 days on d21. The data are presented as means+/−standard deviation. From this experiment the suboptimal 5 mg/kg dose was chosen as the dose to use in combination studies with elotuzumab and/or dexamethasone. […]
To assess the effect of pomalidomide treatment on the growth of the OPM2 xenograft, scid mice with established tumors were treated orally with pomalidomide at doses of 0.5 mg/kg, 5 mg/kg and 50 mg/kg. […] From this experiment the suboptimal 5 mg/kg dose was chosen as the dose to use in the combination studies (Study #1, OPM2-15 and Study #2, OPM2-16).

[2] = pomalidomide 0.5 mg/kg PO QD × 5
[3] = pomalidomide 50 mg/kg PO QD × 5

Elotuzumab: humanized monoclonal IgG1 antibody directed against CS-1; VL SEQ ID NO:1, VH SEQ ID NO:2
frequency of infusion reactions [1]: no increased frequency of infusion reactions

Nc1cccc2c1C(=O)N(C1CCC(=O)NC1=O)C2=O (racemic) [Pomalidomide, (RS)-4-amino-2-(2,6-dioxo-piperidin-3-yl)-isoindole-1,3-dione]
ORR (≥PR) (multiple myeloma; 2 mg/day): 29%
median PFS (multiple myeloma; 2 mg/day): 5.5 months
median duration of response (multiple myeloma; 2 mg/day): 14.1 months
ORR (≥PR) (multiple myeloma; 4 mg/day): 35%
median PFS (multiple myeloma; 4 mg/day): 6.9 months
median duration of response (multiple myeloma; 4 mg/day): 14.5 months
LCK (Log cell kill) (OPM2 xenograft; [2]): 0.19^g
Median Days to Target Size (OPM2 xenograft; [2]): 25 days
TGI (Tumor growth inhibition) (OPM2 xenograft; [2]): 45%
Weight Change % (OPM2 xenograft; [2]): 9.3%
CR (Complete regression) (OPM2 xenograft; [2]): 0/8
PR (Partial regression) (OPM2 xenograft; [2]): 0/8
LCK (Log cell kill) (OPM2 xenograft; pomalidomide 5 mg/kg PO QD × 5): 0.59^f
Median Days to Target Size (OPM2 xenograft; pomalidomide 5 mg/kg PO QD × 5): 29 days
TGI (Tumor growth inhibition) (OPM2 xenograft; pomalidomide 5 mg/kg PO QD × 5): 63.1%
Weight Change % (OPM2 xenograft; pomalidomide 5 mg/kg PO QD × 5): 3.2%
CR (Complete regression) (OPM2 xenograft; pomalidomide 5 mg/kg PO QD × 5): 0/8
PR (Partial regression) (OPM2 xenograft; pomalidomide 5 mg/kg PO QD × 5): 0/8
LCK (Log cell kill) (OPM2 xenograft; [3]): 1.0^e
Median Days to Target Size (OPM2 xenograft; [3]): 33 days
TGI (Tumor growth inhibition) (OPM2 xenograft; [3]): 87.1%
Weight Change % (OPM2 xenograft; [3]): 4.7%
CR (Complete regression) (OPM2 xenograft; [3]): 0/8
PR (Partial regression) (OPM2 xenograft; [3]): 1/8
effect on tumor growth (in words) (OPM2 xenograft): suppressed tumor growth in a dose-dependent fashion
effect on tumor growth (in words) (OPM2 xenograft; listed as pomalidomide): inhibited tumor growth in a dose-dependent fashion
